Results reported in patent publication US12071430B2 (The Johns Hopkins University, priority 2011, dated 2024).
Values after ≈ are worked out from the molar mass of the structure shown. Read-outs that look alike come from different tables or passages of the source.

Columns and labels:
HUVEC [1] = experiment: HUVEC proliferation, [3H]-thymidine incorporation assay; type: cell-based, human
Summary of the method: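 Proliferation read as [3H]-thymidine uptake (1 μCi, 6 h pulse) after 24 h drug treatment in triplicate. Cells: HUVEC at passage ≤8 grown in EGM-2, plated 2000/well the night before; IC50 fitted from scintillation counts.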

AMPK = experiment: Western blot, AMPK activation in HUVEC; type: cell-based, human; details: 24 h, dose-dependent
Description: (§1) Western blot. […] Then cells were lysed using RIPA buffer and the protein concentration were measured and normalized. After electrophoresis and transfer onto 0.45 um nitrocellulose membranes, the membranes were bolted with 5% BSA for 1 h and then incubated overnight at 4° C. Secondary antibody was applied to each membrane for 1 hour. Bolts were imaged using Syngene PXi imaging system after adding chemiluminescent substrate. The following antibodies were used for the assay: AMPKα (1:1,000, cell signaling, #2532s), phosphor-AMPKα (1:1,000, cell signaling #2535s), ACC (1:1,000, cell signaling #3662s), phosphor-ACC (1:1,000, cell signaling, #3661s), mTOR (1:1,000, cell signaling, #2972S), phosphor-mTOR (1:1,000, cell signaling, #9234s), p70 S6 Kinase (1:1,000, senta cruz, #sc-8418), phosphor-p70 S6 Kinase (1:1,000, cell signaling, #3662s), anti-Rabbit IgG (1:10000, GE lifesciences, #NA934V).

HUVECs = experiment: Filipin staining of intracellular cholesterol (NPC phenotype); type: cell-based, human; details: HUVEC, 0.2 μM, 24 h
From the text: Nieman-Pick C phenotype and mTOR inhibition. […] We thus determined whether compound 48 shared the same mechanism with itraconazole. The intracellular cholesterol was detected using the cholesterol-binding fluorescent dye filipin. […] It is known that AMPK activation leads to mTOR inhibition.
Inhibition of NPC1. NPC1 plays an essential role in cholesterol export from the endolysosome. […] At a close view (FIG. 9B), the linear pyridinyl-piperizin-1-yl-phenyl core of compound 14 nestled into the hydrophobic channel created by the transmembrane helix. The isobutyl tail faced toward the open entrance of this channel. The tetrazole moiety pointed into the closed end of the pocket and interacted with the hydroxyl group of Tyr1225 via hydrogen bonding.
Filipin staining. 2000 HUVECs were plated in chamber slide with 1 ml media and allowed to settle overnight. […] The the cells were fixed with 4% paraformaldehyde for 15 min. After washed, cells were incubated with 500 ul 50 ug/ml filipin solution for 1 hour in the dark. Then the cells were washed twice with PBS, mounted and covered with coverslip. The images were taken using confocal microscope under 360/460 nm.

CYP3A4 = target: T1, CYP3A4 (Homo sapiens, UniProt P08684); experiment: CYP3A4 enzyme assay (Vivid CYP3A4 Green Screening Kit); type: in vitro ADME
T1 construct: purchased ThermoFisher P2857; host or cells: baculosomes (insect-cell microsomes, own knowledge)
T1 sequence (P08684 whole entry): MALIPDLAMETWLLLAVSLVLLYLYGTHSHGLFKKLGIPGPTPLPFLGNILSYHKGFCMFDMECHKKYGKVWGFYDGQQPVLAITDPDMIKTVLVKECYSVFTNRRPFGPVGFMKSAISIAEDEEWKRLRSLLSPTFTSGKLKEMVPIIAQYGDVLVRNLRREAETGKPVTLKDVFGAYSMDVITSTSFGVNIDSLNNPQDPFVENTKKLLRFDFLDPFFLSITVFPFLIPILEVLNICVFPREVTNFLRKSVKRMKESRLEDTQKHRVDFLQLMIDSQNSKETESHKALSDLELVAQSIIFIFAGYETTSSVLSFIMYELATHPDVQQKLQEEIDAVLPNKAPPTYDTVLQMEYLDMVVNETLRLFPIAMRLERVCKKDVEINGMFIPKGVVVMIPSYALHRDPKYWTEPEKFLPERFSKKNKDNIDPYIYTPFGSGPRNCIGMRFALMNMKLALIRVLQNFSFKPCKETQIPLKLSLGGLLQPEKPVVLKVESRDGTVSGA
Summary of the method: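 Cell-free fluorescence assay with CYP3A4 baculosomes preincubated with drug 10 min at 37° C before Vivid substrate addition. Fluorescence (ex/em 485/520) read every 1 min for 60 minutes. Compounds tested at 1 μM final concentration.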

mTOR = experiment: Western blot, mTOR inhibition in HUVEC; type: cell-based, human; details: for mTOR inhibition (phosphorylation of mTOR / p70 S6K): 24 h
Description: as §1

[2] = Aqueous solubility test in 0.001N HCl; type: physicochemical; details: for solubility at 24 h: 0.001 N HCl aqueous buffer, simulated gastric fluid, kinetic from dmso stock, thermodynamic solubility, HPLC, pH=3, room temperature
Description: The inhibitory effects of the new analogs on HUVEC proliferation were measured using a [3H]-thymidine incorporation assay. The log P values, used as an indicator of lipophilicity, were calculated using ALOGPS2.1 software. Aqueous solubility is a key physiochemical property relevant for oral absorption. We determined the solubility of each analog in 0.001 N HCl (pH=3), which represents the acidic human gastric fluid.
Aqueous solubility test. In a 1.5 mL microcentrifuge tube, 2 ul of 10 mM compound stock solution in DMSO was added to 1 mL 0.001N HCl aqueous buffer to obtain saturated solution. The resulting mixture was shaken under 600 rpm for 24 h at room temperature. Then the tube was centrifuged at 13,000 rpm for 5 min to remove the undissolved compound. 100 ul of the supernatant was injected to an Agilent 6120 LC/MS for analysis. The mass spectrometry data was collected under SIM/Scan mode. The ions of compound Exact Mass+1 and Exact Mass+23 were monitored as selected ion monitoring (SIM) for peak area integration. Solubility was calculated according to the concentration standard curve of each compound.

[3] = background statement; cited from earlier work
[4] = Earlier SAR studies, anti-angiogenic activity
VEGFR2 [5] = experiment: Immunofluorescence assay, VEGFR2 cellular localization; type: cell-based, human; details: HUVEC, 2 μM, 24 h, colocalized with GM130
Description: Immunofluorescence assay. HUVECs (5000) were seeded in 4-well chamber slide (Nunc™ Lab-Tek™ II) with 1 mL media and cultured overnight. Cells were treated with […] drugs or DMSO for 24 h. The media was then aspirated and washed 3 times with PBS. Cells were fixed with 4% paraformaldehyde for 15 min, washed three times with PBS, permeabilized with 0.1% Triton X and washed again. 2% BSA blocking buffer was applied to the cells for 1 h. The primary antibodies of VEGFR2 (1:50, cell signaling, #2479) and GM130 (1:1000, BD, #610823) were incubated overnight at 4° C. After washing 3 times with 0.5% BSA in PBS, secondary antibody solutions (1:1000 goat anti-rabbit Alexa Fluor 488, Invitrogen, #A11008 and 1:1000 goat anti-mouse Alexa Fluor 594, Invitrogen, A11005) were applied at room temperature for 1 h in the dark. After washing 3 times, slides were incubated in 0.1 μg/mL DAPI solution for 5 min and rinsed 2 times with PBS. The coverslip was mounted with Immunount (Fisher) and sealed with nail polish. Confocal images were taken using Zeiss LSM700 confocal microscope with 20× lenses.

HUVEC [6] = experiment: HUVEC tube formation assay on Matrigel; type: cell-based; details: Homo sapiens, 24 h, read-out: inhibition of HUVEC tube formation (total tube length)
HUVEC [7] = experiment: HUVEC proliferation, [3H]-thymidine incorporation assay; type: cell-based; details: Homo sapiens, mean ± SD, three independent experiments, read-out: HUVEC inhibition IC50
VEGFR2 [8] = experiment: Western blot, VEGFR2 glycosylation in HUVEC; type: cell-based, human; details: 24 h
Description: mTOR and VEGFR2 inhibition. We then determined the effects of compound 14 on AMPK/mTOR activity and VEGFR2 glycosylation. […] We observed two VEGFR2 bands by Western blotting, representing differentially glycosylated forms of the receptor, with the higher molecular weight band being more predominant in untreated HUVEC. […] The high molecular weight species of VEGFR2 disappeared upon treatment with compound 14 at concentrations of 0.5 μM or higher (FIG. 10A). We next determined whether compound 14 and other analogs affected cellular localization of VEGFR2 using immunofluorescence (FIG. 10B). […] In contrast, in the untreated cells VEGFR2 was uniformly distributed in small puncta throughout the cytoplasm. As a critical component of lipid rafts, cholesterol is pivotal to intracellular transportation and cell signaling.
Western blot. […] Then cells were lysed using RIPA buffer and the protein concentration were measured and normalized. After electrophoresis and transfer onto 0.45 um nitrocellulose membranes, the membranes were bolted with 5% BSA for 1 h and then incubated overnight at 4° C. Secondary antibody was applied to each membrane for 1 hour. Bolts were imaged using Syngene PXi imaging system after adding chemiluminescent substrate. […]

[9] = Earlier SAR studies, hepatotoxicity
[10] = dose-response, FIG. 2 / FIG. 6, read-out: IC50 for CYP3A4 inhibition

SMILES	solubility at 24 h [2] [µg/mL]	IC50 (CYP3A4; [10]) [µM]	AMPK activation (phosphorylation of AMPK Thr172 / substrate ACC) (AMPK)	mTOR inhibition (phosphorylation of mTOR / p70 S6K) (mTOR)	anti-angiogenic activity, in words [4]	IC50 (HUVEC [7]) [µM]	induction of NPC phenotype (cholesterol accumulation) (HUVECs)	also measured
CCC(C)n1ncn(-c2ccc(N3CCN(c4ccc(OC[C@@H]5CO[C@@](Cn6cnnn6)(c6ccc(Cl)cc6Cl)O5)cc4)CC3)cc2)c1=O (stereo partly drawn) [Compound 48, 4-(4-(4-(4-(((2S,4R)-2-((1H-tetrazol-1-yl)methyl)-2-(2,4-dichlorophenyl)-1,3-dioxolan-4-yl)methoxy)phenyl)piperazin-1-yl)phenyl)-1-sec-butyl-1H-1,2,4-triazol-5(4H)-one]			increased the phosphorylation of AMPK	decrease in the phosphorylation of mTOR				Proliferation (IC50/IC50 Itra) (HUVEC [1]; HUVEC IC50 relative to itraconazole): 0.4; induction of NPC phenotype (cholesterol accumulation) (HUVECs; listed as compound 48): induced NPC phenotype; CYP3A4 Inhibition (compared to intracozanole at 1 um) (CYP3A4; % enzyme inhibition at 1 uM drug / % enzyme inhibition at 1 uM itraconazole): 0.02; IC50 at 60 min (CYP3A4; human, recombinant CYP3A4 baculosomes (cell-free), probe Vivid substrate (Vivid CYP3A4 Green Screening Kit), dose-response, FIG. 2 / FIG. 6, read-out: IC50 for CYP3A4 inhibition): > 20 µM; EC50 at 60 min (CYP3A4; human, recombinant CYP3A4 baculosomes, probe Vivid substrate (Vivid CYP3A4 Green Screening Kit), read-out: EC50 against CYP3A4): > 20 µM
CCC(C)n1ncn(-c2ccc(N3CCN(c4ccc(OCC5COC(Cn6cncn6)(c6ccc(Cl)cc6Cl)O5)cc4)CC3)cc2)c1=O (centres unmarked) [itraconazole, reference compound]	0.0101 (≈ 0.0143 µM)							log P [3]: 5.3
CCC(C)n1ncn(-c2ccc(N3CCN(c4ccc(OC[C@@H]5CO[C@@](Cn6cnnn6)(c6ccc(Cl)cc6Cl)O5)cn4)CC3)c(F)c2)c1=O (stereo partly drawn) [Compound 15, 4-(4-(4-(5-(((2S,4R)-2-((1H-tetrazol-1-yl)methyl)-2-(2,4-dichlorophenyl)-1,3-dioxolan-4-yl)methoxy)pyridin-2-yl)piperazin-1-yl)-3-fluorophenyl)-2-(sec-butyl)-2,4-dihydro-3H-1,2,4-triazol-3-one]	0.708 (≈ 0.975 µM)	37				0.108 ± 0.0086	massive build-up of cholesterol	
CCC(C)n1ncn(-c2ccc(N3CCN(c4ccc(OC[C@@H]5CO[C@@](Cn6cncn6)(c6ccc(Cl)cc6Cl)O5)cc4)CC3)cc2)c1=O (some centres unmarked) [IT-C]					strongest anti-angiogenic activity			hepatotoxicity, in words [9]: significantly reduced hepatotoxicity

Continued, in another order:

solubility at 24 h [2] [µg/mL]	IC50 (CYP3A4; [10]) [µM]	SMILES	AMPK activation (phosphorylation of AMPK Thr172 / substrate ACC) (AMPK)	mTOR inhibition (phosphorylation of mTOR / p70 S6K) (mTOR)	anti-angiogenic activity, in words [4]	IC50 (HUVEC [7]) [µM]	induction of NPC phenotype (cholesterol accumulation) (HUVECs)	also measured
0.321 (≈ 0.455 µM)		CCC(C)n1ncn(-c2ccc(N3CCN(c4ccc(OC[C@@H]5CO[C@@](Cn6cnnn6)(c6ccc(Cl)cc6Cl)O5)cc4)CC3)cc2)c1=O (some centres unmarked) [Compound 24]			increased activity			induction of NPC phenotype (cholesterol accumulation) (HUVECs; listed as compound 24): massive build-up of cholesterol; CYP3A4 inhibition, in words (CYP3A4; dose response or compared with itraconazole): significantly reduced CYP3A4 inhibition
0.951 (≈ 1.34 µM)	95	CCC(C)n1ncn(-c2ccc(N3CCN(c4ccc(OC[C@@H]5CO[C@@](Cn6cnnn6)(c6ccc(Cl)cc6Cl)O5)cn4)CC3)cc2)c1=O (stereo partly drawn) [Compound 14, 4-(4-(4-(5-(((2S,4R)-2-((1H-tetrazol-1-yl)methyl)-2-(2,4-dichlorophenyl)-1,3-dioxolan-4-yl)methoxy)pyridin-2-yl)piperazin-1-yl)phenyl)-2-(sec-butyl)-2,4-dihydro-3H-1,2,4-triazol-3-one]	activated AMPK	potently inhibited		0.077	massive build-up of cholesterol	VEGFR2 cellular localization (VEGFR2 [5]): accumulated in the perinuclear region; IC50 (HUVEC [1]; [3H]-thymidine incorporation, mean ± SD, three independent experiments, read-out: HUVEC inhibition IC50): 0.0771 ± 0.0119 µM; inhibition at 3 µM (HUVEC [6]): 70%; VEGFR2 glycosylation, band mobility (VEGFR2 [8]): mobility shift to the lower molecular weight, hypoglycosylated band; concentration at which the high molecular weight species of VEGFR2 disappeared (VEGFR2 [8]): ≥ 0.5 µM; increase in solubility compared to itraconazole ([2]; 0.001N HCl): over 90 fold; S6K phosphorylation at higher doses (mTOR; 1 μM and 2 μM): completely abolished
